In experiment [1] the test system is A2780 ovarian cells. Kind of experiment: A2780 ovarian cell proliferation assay in lipid reduced medium, without palmitate (MTT). Type of experiment: cell-based. As to conditions: Homo sapiens, A2780, 96 h; read-out: pIC50 A2780 Ovarian Cell, Without Palmitate (converted).
The subject of experiment [2] is A2780 ovarian cells. Kind of experiment: A2780 ovarian cell proliferation assay in lipid reduced medium, with palmitate (MTT). Conditions: Homo sapiens, A2780, 96 h; read-out: pIC50 A2780 Ovarian Cell, With Palmitate (converted). The experiment is classed as cell-based. Put shortly: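 In this palmitate-supplemented format, compound dilutions (30 μM down to 0.01 μM) are added to cells in lipid-reduced serum with 25 μM palmitate, 0.2% fatty-acid-free BSA and 0.25% ethanol. After four days (96 h) MTT absorbance at 544 nm is recorded and fitted by minimum sum of squares.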

Experiment [3] concerns the target Fatty Acid Synthase Keto-reductase Domain (FASN KR) (Homo sapiens, UniProt P49327). Kind of experiment: Fatty Acid Synthase keto-reductase domain (FASN KR) inhibition, NADPH oxidation at 340 nm.
Procedure: After 20 minutes incubation at room temperature the plate was measured again (T2).
The decrease in absorbance was calculated as (Absorbance before incubation T1)−(Absorbance following incubation T2).
A plot of Controlmin versus test compound concentration was fitted to a 4-parameter logistic curve using a non-linear least squares regression method.
For experiment [4], the target named is T1, hFASN enzyme (full length) (Homo sapiens, UniProt P49327).
T1 construct: 10 μL hFASN enzyme (full length, 300 ng, purified in house); made in house
T1 sequence (P49327 whole entry): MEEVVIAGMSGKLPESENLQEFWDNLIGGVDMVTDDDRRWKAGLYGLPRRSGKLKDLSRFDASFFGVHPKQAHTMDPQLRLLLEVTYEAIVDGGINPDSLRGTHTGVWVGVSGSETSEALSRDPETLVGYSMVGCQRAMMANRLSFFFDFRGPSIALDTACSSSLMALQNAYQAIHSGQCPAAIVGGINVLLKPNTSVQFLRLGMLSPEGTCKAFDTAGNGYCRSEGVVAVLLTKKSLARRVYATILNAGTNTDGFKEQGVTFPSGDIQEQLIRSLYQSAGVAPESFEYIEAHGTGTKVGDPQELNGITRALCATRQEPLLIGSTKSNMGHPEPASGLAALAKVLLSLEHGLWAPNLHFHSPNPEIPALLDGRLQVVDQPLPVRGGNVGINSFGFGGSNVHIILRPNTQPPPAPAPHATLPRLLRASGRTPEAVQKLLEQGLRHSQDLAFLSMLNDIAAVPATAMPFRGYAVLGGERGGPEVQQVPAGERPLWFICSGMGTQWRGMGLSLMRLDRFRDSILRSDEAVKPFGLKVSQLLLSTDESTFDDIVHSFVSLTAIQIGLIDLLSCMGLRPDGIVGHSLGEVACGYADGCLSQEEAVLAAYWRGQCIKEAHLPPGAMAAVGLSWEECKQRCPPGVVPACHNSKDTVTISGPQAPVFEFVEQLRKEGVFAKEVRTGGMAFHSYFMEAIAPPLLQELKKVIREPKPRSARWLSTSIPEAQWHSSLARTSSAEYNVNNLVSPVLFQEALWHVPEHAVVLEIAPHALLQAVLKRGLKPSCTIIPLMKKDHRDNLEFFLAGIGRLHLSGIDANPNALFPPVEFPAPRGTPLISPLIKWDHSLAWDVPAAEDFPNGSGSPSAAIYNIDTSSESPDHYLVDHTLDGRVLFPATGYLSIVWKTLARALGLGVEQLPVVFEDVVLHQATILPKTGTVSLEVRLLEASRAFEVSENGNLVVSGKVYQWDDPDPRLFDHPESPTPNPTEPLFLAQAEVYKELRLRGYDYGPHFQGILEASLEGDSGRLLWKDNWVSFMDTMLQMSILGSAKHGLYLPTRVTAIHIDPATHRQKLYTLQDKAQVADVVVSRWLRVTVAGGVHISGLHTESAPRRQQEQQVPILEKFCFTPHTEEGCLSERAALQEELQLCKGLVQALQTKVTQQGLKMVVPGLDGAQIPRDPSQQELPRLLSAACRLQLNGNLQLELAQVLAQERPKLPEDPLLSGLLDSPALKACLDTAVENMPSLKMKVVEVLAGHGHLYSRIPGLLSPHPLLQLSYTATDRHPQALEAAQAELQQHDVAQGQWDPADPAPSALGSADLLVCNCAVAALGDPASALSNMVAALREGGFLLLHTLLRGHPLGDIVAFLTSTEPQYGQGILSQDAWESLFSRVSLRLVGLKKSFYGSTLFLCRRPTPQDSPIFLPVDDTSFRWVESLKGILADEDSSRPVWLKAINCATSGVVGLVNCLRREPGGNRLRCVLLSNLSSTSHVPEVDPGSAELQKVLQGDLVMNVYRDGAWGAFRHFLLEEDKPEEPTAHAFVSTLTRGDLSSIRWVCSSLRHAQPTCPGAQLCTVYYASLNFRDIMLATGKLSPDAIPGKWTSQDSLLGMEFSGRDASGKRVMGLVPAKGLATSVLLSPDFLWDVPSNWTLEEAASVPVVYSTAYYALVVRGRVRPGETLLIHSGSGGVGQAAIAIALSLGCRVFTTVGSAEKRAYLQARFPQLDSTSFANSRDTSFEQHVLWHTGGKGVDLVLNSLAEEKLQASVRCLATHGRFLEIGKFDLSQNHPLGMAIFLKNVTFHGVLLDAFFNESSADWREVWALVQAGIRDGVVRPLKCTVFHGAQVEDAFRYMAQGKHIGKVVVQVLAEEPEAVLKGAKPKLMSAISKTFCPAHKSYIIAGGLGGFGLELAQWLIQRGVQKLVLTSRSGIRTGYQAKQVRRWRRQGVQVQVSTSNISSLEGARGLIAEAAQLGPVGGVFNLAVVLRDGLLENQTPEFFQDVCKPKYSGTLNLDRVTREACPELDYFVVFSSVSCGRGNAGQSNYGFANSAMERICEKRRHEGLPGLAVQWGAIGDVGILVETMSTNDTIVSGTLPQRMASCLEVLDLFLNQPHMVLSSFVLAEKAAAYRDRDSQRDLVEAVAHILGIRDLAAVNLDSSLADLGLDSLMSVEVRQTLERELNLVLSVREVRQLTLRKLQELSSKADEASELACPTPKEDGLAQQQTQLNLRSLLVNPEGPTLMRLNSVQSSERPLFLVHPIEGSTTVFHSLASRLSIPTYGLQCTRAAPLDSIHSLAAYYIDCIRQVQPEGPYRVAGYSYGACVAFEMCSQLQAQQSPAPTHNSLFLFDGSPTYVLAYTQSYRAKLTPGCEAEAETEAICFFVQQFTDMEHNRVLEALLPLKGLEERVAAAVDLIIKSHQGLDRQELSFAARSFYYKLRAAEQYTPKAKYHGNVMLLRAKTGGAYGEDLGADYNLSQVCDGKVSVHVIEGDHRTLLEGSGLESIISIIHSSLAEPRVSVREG
Kind of experiment: Fatty Acid Synthase (FASN) inhibition scintillation proximity assay. The experiment is classed as biochemical. As to conditions: for inhibition at 10 µM: read-out: Human FASN % inhibition @ 10 μM, 10 μM test compound; for IC50: read-out: Human FASN pIC50 (converted). Put shortly: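 Scintillation proximity format: in-house full-length enzyme, 300 ng per well, pH 7.5 phosphate/DTT buffer, ³H-acetyl-CoA and malonyl-CoA. Emission counted on LEADseeker at 610 nm at least 24 h after stopping.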
A general note: Scintillation proximity formats need no separation of bound from free tracer.

The values that follow come from patent publication US10077261B2, “Imidazolin-5-one derivative useful as FASN inhibitors for the treatment of cancer” (Janssen Pharmaceutica NV, priority 2012, dated 2018).

Sequence of Fatty Acid Synthase Keto-reductase Domain (FASN KR) (P49327 whole entry, the tested form may be a part): as the sequence (P49327 whole entry) above

For `Cc1cccc(-c2ccc(C3=NC4(CC4)C(=O)N3C[C@@H]3CCN(C(=O)C4CC4)C3)cc2)c1` [compound 101, 6-{[(3R)-1-(Cyclopropylcarbonyl)pyrrolidin-3-yl]methyl}-5-(3′-methylbiphenyl-4-yl)-4,6-diazaspiro[2.4]hept-4-en-7-one], the IC50 in experiment [1] was 1700 nM; in experiment [2] it was over 10000 nM; in experiment [3], 380 nM; in experiment [4], 81.3 nM. Besides, the inhibition at 10 µM in experiment [4] stood at 112%.
In the same order, the values of `O=C(C1CC1)N1CC[C@@H](CN2C(=O)C3(CC3)N=C2c2ccc(-c3cccc(F)c3)cc2)C1` [compound 102, 6-{[(3R)-1-(Cyclopropylcarbonyl)pyrrolidin-3-yl]methyl}-5-(3′-fluorobiphenyl-4-yl)-4,6-diazaspiro[2.4]hept-4-en-7-one] are 2290 nM, over 10000 nM, 1070 nM, 209 nM and 107%.
In the same order, the values of `COc1ccc(-c2ccc(C3=NC4(CC4)C(=O)N3C[C@@H]3CCN(C(=O)C4CC4)C3)cc2)cc1` [compound 103, 6-{[(3R)-1-(Cyclopropylcarbonyl)pyrrolidin-3-yl]methyl}-5-(4′-methoxybiphenyl-4-yl)-4,6-diazaspiro[2.4]hept-4-en-7-one] are 851 nM, over 10000 nM, 316 nM, 67.6 nM and 109%.
Take `O=C(C1CC1)N1CC[C@@H](CN2C(=O)C3(CC3)N=C2c2ccc(-c3ccc(F)cc3)cc2)C1` [compound 105, 6-{[(3R)-1-(Cyclopropylcarbonyl)pyrrolidin-3-yl]methyl}-5-(4′-fluorobiphenyl-4-yl)-4,6-diazaspiro[2.4]hept-4-en-7-one]: the IC50 is 955 nM in experiment [1], over 10000 nM in experiment [2], 501 nM in experiment [3] and 100 nM in experiment [4]. In addition, the inhibition at 10 µM in experiment [4] was 104%.
For the molecule `O=C(C1CC1)N1CC[C@@H](CN2C(=O)C3(CCNCC3)N=C2c2ccc(-c3ccc4cnccc4c3)cc2)C1` [compound 106, 3-{[(3R)-1-(Cyclopropylcarbonyl)pyrrolidin-3-yl]methyl}-2-(4-isoquinolin-6-ylphenyl)-1,3,8-triazaspiro[4.5]dec-1-en-4-one], the IC50 in experiment [1] is 741 nM; in experiment [2], over 10000 nM; in experiment [3] it was 603 nM; in experiment [4], 112 nM. In experiment [4], the inhibition at 10 µM came to 110%.
In the same order, the values of `COc1cccc(-c2ccc(C3=NC4(CC4)C(=O)N3C[C@@H]3CCN(C(=O)C4CC4)C3)cc2)c1` [compound 113, 6-{[(3R)-1-(Cyclopropylcarbonyl)pyrrolidin-3-yl]methyl}-5-(3′-methoxybiphenyl-4-yl)-4,6-diazaspiro[2.4]hept-4-en-7-one] are about 1780 nM, over 10000 nM, 1070 nM, 117 nM and 109%.
In the same order, the values of `O=C(C1CC1)N1CC[C@@H](CN2C(=O)C3(CC3)N=C2c2ccc(-c3ccc(Cl)cc3)cc2)C1` [compound 114, 5-(4′-Chlorobiphenyl-4-yl)-6-{[(3R)-1-(cyclopropylcarbonyl)pyrrolidin-3-yl]methyl}-4,6-diazaspiro[2.4]hept-4-en-7-one] are about 832 nM, over 10000 nM, 234 nM, 75.9 nM and 107%.
In the same order, the values of `O=C(C1CC1)N1CC[C@@H](CN2C(=O)C3(CC3)N=C2c2ccc(-c3cccc(O)c3)cc2)C1` [compound 115, 6-{[(3R)-1-(Cyclopropylcarbonyl)pyrrolidin-3-yl]methyl}-5-(3′-hydroxybiphenyl-4-yl)-4,6-diazaspiro[2.4]hept-4-en-7-one] are about 61.7 nM, over 10000 nM, 123 nM, 30.2 nM and 113%.
For `O=C(C1CC1)N1CC[C@H](CN2C(=O)C3(CC3)N=C2c2ccc(-c3ccc4[nH]ccc4c3)cc2)C1` [compound 210, (S)-5-(4-(1H-indol-5-yl)phenyl)-6-((1-(cy7clopropanecarbonyl)pyrrolidin-3-yl)methyl)-4,6-diazaspiro[2.4]hept-4-en-7-one], the IC50 in experiment [1] was 52.5 nM; in experiment [2] it was over 10000 nM; in experiment [3], 170 nM; in experiment [4], 89.1 nM. The inhibition at 10 µM in experiment [4] amounted to 103%.
On to `O=C(C1CC1)N1CC[C@H](CN2C(=O)C3(CC3)N=C2c2ccc(-c3ccc4sccc4c3)cc2)C1` [compound 211, (S)-5-(4-(benzo[b]thiophen-5-yl)phenyl)-6-((1-(cyclopropanecarbonyl)pyrrolidin-3-yl)methyl)-4,6-diazaspiro[2.4]hept-4-en-7-one], for which the IC50 in experiment [1] was about 708 nM; in experiment [2] it was over 10000 nM; in experiment [3], 200 nM; in experiment [4] it was 85.1 nM. The inhibition at 10 µM in experiment [4] stood at 107%.
In the same order, the values of `O=C(C1CC1)N1CC[C@@H](CN2C(=O)C3(CC3)N=C2c2ccc(-c3ccc(-c4ccncc4)cc3)cc2)C1` [compound 235, (R)-6-((1-(cyclopropanecarbonyl)pyrrolidin-3-yl)methyl)-5-(4′-(pyridin-4-yl)-[1,1′-biphenyl]-4-yl)-4,6-diazaspiro[2.4]hept-4-en-7-one] are 10 nM, over 10000 nM, 45.7 nM, 23.4 nM and 111%.
With `Cc1cc(-c2ccc3occc3c2)ccc1C1=NC2(CC2)C(=O)N1C[C@@H]1CCN(C(=O)C2CC2)C1` [compound 278, (R)-5-(4-(benzofuran-5-yl)-2-methylphenyl)-6-((1-(cyclopropanecarbonyl)pyrrolidin-3-yl)methyl)-4,6-diazaspiro[2.4]hept-4-en-7-one], the IC50 in experiment [1] was about 692 nM; in experiment [2] it was over 10000 nM; in experiment [3], 69.2 nM; in experiment [4], 25.7 nM. Moreover, the inhibition at 10 µM in experiment [4] was 113%.
In the same order, the values of `Cc1cc(-c2ccc3sccc3c2)ccc1C1=NC2(CC2)C(=O)N1C[C@@H]1CCN(C(=O)C2CC2)C1` [compound 279, (R)-5-(4-(benzo[d]thiophen-5-yl)-2-methylphenyl)-6-((1-(cyclopropanecarbonyl)pyrrolidin-3-yl)methyl)-4,6-diazaspiro[2.4]hept-4-en-7-one] are 407 nM, over 10000 nM, 44.7 nM, 28.2 nM and 107%.
In the same order, the values of `Cc1cc2cc(-c3ccc(C4=NC5(CC5)C(=O)N4C[C@@H]4CCN(C(=O)C5CC5)C4)c(C)c3)ccc2o1` [compound 280, (R)-6-((1-(cyclopropanecarbonyl)pyrrolidin-3-yl)methyl)-5-(2-methyl-4-(2-methylbenzofuran-5-yl)phenyl)-4,6-diazaspiro[2.4]hept-4-en-7-one] are about 1950 nM, over 10000 nM, 126 nM, 30.2 nM and 109%.

As usually defined, the inhibition is the drop in the measured response relative to a control, in per cent.
